This is an account of results in ChEMBL document CHEMBL1201862, “PubChem BioAssay data set” (2004).

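Protocol summary: plate cells (96-well), add compound at 5 concentrations, incubate 48 h, interpolate endpoints linearly. GI50 marks 50% less growth.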 Calls of active or inactive are those of the source. Cut-off read from the data, not from the text of the source: active = GI50 up to about 1.1 µM and inactive = higher. Some results are limits rather than exact numbers.

Common to all, as to experiment: NCI tumour cell line growth inhibition, 48 h
Assay [1] relates to ACHN.
Assay [2] relates to OVCAR-8.
Assay [3] has as its system MDA-MB-231.
The test system of assay [4] is SK-MEL-5.
For assay [5], the system named is U-251.
In assay [6] the test system is K562.
The subject of assay [7] is OVCAR-5.
Assay [8] relates to SK-MEL-28.
The subject of assay [9] is SW-620.
Assay [10] deals with UACC-62.
Assay [11] has as its system HCT-15.
The subject of assay [12] is Malme-3M.
Assay [13] deals with RXF 393.
The subject of assay [14] is KM12.
The subject of assay [15] is NCI-H460.
Assay [16] relates to Hs-578T.
In assay [17] the test system is MCF7.
Assay [18] relates to A549.
For assay [19], the system named is OVCAR-4.

In the case of `COC1=CC(=O)C(C2CC(=O)c3c(O)cc(O)cc3O2)=CC1=O` (centres undefined), the GI50 in assay [1] was 15.9 µM (inactive); in [2], 25.9 µM (inactive); in [3], 12.2 µM (inactive); in assay [4] it was 16.8 µM (inactive); in assay [5], 18.5 µM (inactive); in assay [6], 5.86 µM (inactive). For the same compound, the GI50 in assay [7] is 19.6 µM (inactive); in [8], 16.9 µM (inactive); in assay [9], 20.2 µM (inactive); in assay [10] it was 16.4 µM (inactive); in assay [11], 23.3 µM; in [12], 19.1 µM (inactive). Moreover, the GI50 in [13] was 19.1 µM (inactive); in assay [14] it was 17.3 µM (inactive); in [15], 23 µM (inactive); in assay [16], 33.5 µM (inactive); in [17] it was 22.9 µM (inactive); in assay [18], 39.9 µM (inactive). Further, the GI50 in [19] is 17.6 µM (inactive).

Consider `CSC(=S)CC(O)[C@@H]1CC2c3ccccc3C1c1ccccc12` (some centres undefined), for which the GI50 in assay [1] was 13.6 µM (inactive); in assay [2] it was 14.9 µM (inactive); in assay [3] it was 23.8 µM (inactive); in assay [4], 13.4 µM (inactive); in assay [5], 3.55 µM (inactive); in [6], 4.56 µM (inactive). For the same compound, the GI50 in [7] was 16.7 µM (inactive); in [8], 21.7 µM (inactive); in [9], 4.81 µM (inactive); in [10], 12.1 µM (inactive); in assay [11], 9.73 µM; in assay [12], 19.7 µM (inactive). Moreover, the GI50 in assay [13] is 2.19 µM (inactive); in assay [14], 11.3 µM (inactive); in assay [15], 14.6 µM (inactive); in [16], 15 µM (inactive); in assay [17], 13.9 µM (inactive); in [18] it was 17.1 µM (inactive). Further, in assay [19], the GI50 was 12.1 µM (inactive).

On to `CC(C)(C)OC(=O)C(C1NC(C(=O)O)C(C)(C)S1)N1C(=O)c2ccccc2C1=O` (centres undefined), for which the GI50 in assay [1], in assay [2], in assay [3], in assay [4], in assay [5] and in assay [6] was > 100 µM (inactive) each time. Further, the GI50 in [7] was > 100 µM (inactive); in assay [8] it was > 100 µM (inactive); in assay [9], > 100 µM (inactive); in assay [10], > 100 µM (inactive); in assay [11], above 100 µM; in assay [12], > 100 µM (inactive). For the same compound, the GI50 in [13], in assay [14], in assay [15], in assay [16], in assay [17] and in assay [18] was > 100 µM (inactive) throughout. In addition, the GI50 in assay [19] is > 100 µM (inactive).

For the compound `CCOC(=O)c1cc(C2CCN(c3ccccc3)C2=O)c(C(=O)/C=C(/C)N)[nH]1` (centres undefined), the GI50 in assay [1] is 40.6 µM (inactive); in assay [2], 28.3 µM (inactive); in assay [3], 56.4 µM (inactive); in [4] it was 40.8 µM (inactive); in [5], 15 µM (inactive); in assay [6], 68.2 µM (inactive). For the same compound, the GI50 in assay [7] was 46.3 µM (inactive); in [8], 29.1 µM (inactive); in assay [9] it was 45.8 µM (inactive); in assay [10], 16.2 µM (inactive); in [11], above 100 µM; in assay [12] it was 17.6 µM (inactive). Besides, the GI50 in [13] is 37.9 µM (inactive); in assay [14], > 100 µM (inactive); in assay [15] it was 33.2 µM (inactive); in assay [16] it was 14.9 µM (inactive); in assay [17] it was 54.6 µM (inactive); in assay [18], 25.6 µM (inactive). The GI50 in assay [19] is 42.5 µM (inactive).

As for `CCOC(=O)c1nc2cc(Cl)ccc2[nH]c1=O`, the GI50 in assay [1], in assay [2], in assay [3], in assay [4], in assay [5] and in assay [6] was > 100 µM (inactive) each time. Besides, the GI50 was > 100 µM (inactive) in assay [7]; > 100 µM (inactive) in [8]; > 100 µM (inactive) in assay [9]; > 100 µM (inactive) in [10]; above 100 µM in assay [11]; > 100 µM (inactive) in assay [12]. The GI50 was > 100 µM (inactive) in assay [13]; > 100 µM (inactive) in assay [14]; 53.7 µM (inactive) in assay [15]; > 100 µM (inactive) in [16]; > 100 µM (inactive) in assay [17]; > 100 µM (inactive) in assay [18]. Moreover, the GI50 in assay [19] is > 100 µM (inactive).

Consider `CC[C@@]1(O)C(=O)OCc2c1cc1n(c2=O)Cc2c-1nc1ccc(O)cc1c2CC[Si](C)(C)C`, for which the GI50 was < 0.001 µM (active) in assay [1]; 0.00716 µM (active) in assay [2]; 0.187 µM (active) in assay [3]; 0.00116 µM (active) in [4]; < 0.001 µM (active) in [5]; 0.00839 µM (active) in assay [6]. Further, the GI50 in assay [7] was 0.0272 µM (active); in assay [8], 0.0402 µM (active); in assay [9] it was 0.00438 µM (active); in assay [10], < 0.001 µM (active); in assay [11], 0.102 µM; in assay [12], 0.016 µM (active). Further, the GI50 in [13] is 0.00279 µM (active); in [14] it was 0.0514 µM (active); in [15], < 0.001 µM (active); in assay [16], 0.681 µM (active); in assay [17], < 0.001 µM (active); in assay [18], 0.00366 µM (active). In [19], the GI50 is 0.0291 µM (active).

Regarding `CC(C(=O)n1ccnc1)N1c2ccccc2Sc2ccccc21` (centres undefined), the GI50 was 83.2 µM (inactive) in assay [1]; > 100 µM (inactive) in assay [2]; 78.3 µM (inactive) in [3]; 35 µM (inactive) in [4]; 64.4 µM (inactive) in [5]; 91.2 µM (inactive) in assay [6]. Also, the GI50 in assay [7] is 65.3 µM (inactive); in [8] it was > 100 µM (inactive); in [9], > 100 µM (inactive); in assay [10], > 100 µM (inactive); in [11], 97.5 µM; in assay [12] it was 83.6 µM (inactive). For the same compound, the GI50 in assay [13] is > 100 µM (inactive); in assay [14], 71.3 µM (inactive); in [15], 92 µM (inactive); in assay [16] it was > 100 µM (inactive); in assay [17], 53.1 µM (inactive); in assay [18] it was > 100 µM (inactive). The GI50 in assay [19] was > 100 µM (inactive).

For the compound `CCOC(=O)c1ccc(-n2nnc(C(N)=O)c2O)cc1`, the GI50 in assay [1], in assay [2], in assay [3], in assay [4], in assay [5] and in assay [6] was > 100 µM (inactive) in each case. Further, the GI50 in [7] was > 100 µM (inactive); in assay [8], > 100 µM (inactive); in assay [9], > 100 µM (inactive); in assay [10], > 100 µM (inactive); in assay [11], above 100 µM; in [12] it was > 100 µM (inactive). Further, the GI50 in assay [13], in [14], in assay [15], in [16], in assay [17] and in assay [18] was > 100 µM (inactive) each time. The GI50 in assay [19] was > 100 µM (inactive).

Take `Clc1cc(Cl)cc(/C=N/C23CC4CC(CC(C4)C2)C3)c1`: the GI50 in [1], in assay [2], in [3], in assay [4], in assay [5] and in assay [6] was > 10 µM (inactive) throughout. Besides, the GI50 was > 10 µM (inactive) in [7]; > 10 µM (inactive) in assay [8]; > 10 µM (inactive) in assay [9]; > 10 µM (inactive) in [10]; above 10 µM in [11]; > 10 µM (inactive) in assay [12]. Moreover, the GI50 in assay [13] was > 10 µM (inactive); in assay [14] it was > 10 µM (inactive); in [15], > 10 µM (inactive); in assay [16], > 10 µM (inactive); in assay [17] it was 7.59 µM (inactive); in assay [18], > 10 µM (inactive). The GI50 in assay [19] was > 10 µM (inactive).

`c1coc(-c2nccc3c2[nH]c2ccccc23)c1`: the GI50 in assay [1], in assay [2], in assay [3], in assay [4], in [5] and in [6] was > 100 µM (inactive) in each case. The GI50 in assay [7] is > 100 µM (inactive); in [8], > 100 µM (inactive); in [9] it was > 100 µM (inactive); in assay [10], > 100 µM (inactive); in [11], above 100 µM; in assay [12], > 100 µM (inactive). Further, the GI50 in [13], in assay [14], in assay [15], in [16], in assay [17] and in [18] was > 100 µM (inactive) in each case. Moreover, the GI50 in assay [19] is > 100 µM (inactive).

In the case of `CCOC(=O)CCC(NC(=O)c1ccc(OCc2nc3ccccc3n3cccc23)cc1)C(=O)OCC` (centres undefined), the GI50 in assay [1] was 54.5 µM (inactive); in assay [2], 33.5 µM (inactive); in assay [3] it was > 100 µM (inactive); in assay [4], 93.3 µM (inactive); in [5] it was 17.3 µM (inactive); in [6], 16.5 µM (inactive). Further, the GI50 in assay [7] is > 100 µM (inactive); in assay [8], > 100 µM (inactive); in assay [9] it was 11.6 µM (inactive); in [10], > 100 µM (inactive); in assay [11], 50.6 µM; in assay [12] it was > 100 µM (inactive). Also, the GI50 in assay [13] is 36.6 µM (inactive); in [14], 4.83 µM (inactive); in assay [15], > 100 µM (inactive); in assay [16] it was 64.4 µM (inactive); in [17], 39.2 µM (inactive); in assay [18], > 100 µM (inactive). In assay [19], the GI50 is 59.7 µM (inactive).
